Measured values from patent US20230054976A1, “METHODS FOR INHIBITION OF ALPHA-SYNUCLEIN mRNA USING SMALL MOLECULES” (The Scripps Research Institute, priority 2019, published 2023).

Legend:
[1] = system: RNA-8 to 11 (mutated closing base pairs); test: Competitive binding assay (2-AP), RNA-8 to 11
Description: (§1) EC50 was calculated from Eq. (1).

[2] = molecular target: RNA-6 (A bulge mutated to U or G bulge); test: Competitive binding assay (2-AP), RNA-6
Description: as §1

SNCA 5′ UTR = test: Luciferase reporter assay, SNCA 5′ UTR, SH-SY5Y cells; type: cell-based, human
ferritin 5′ UTR = test: Luciferase reporter assay, ferritin 5′ UTR, SH-SY5Y cells; type: cell-based, human; settings: 1 μM
SH-SY5Y cells = test: Cell viability (MTS) assay; type: cell-based, human; settings: 0.25, 0.5 and 1 μM, 48 h
Description: (§2) To assess if Synucleozid has a cytotoxic effect, SH-SY5Y cells were treated with 0.25 μM to 1 μM for 48 h, and cell viability and cytotoxicity were measured using CellTiter 96 Aqueous One Solution Cell Proliferation Assay (MTS) according to the manufacturers' instructions.
as §2, with “0.25, 0.5 and” for “0.25 μM to”, “(MTS) and LDH release assay, respectively,” for “(MTS)”

[3] = molecular target: RNA-1 (A bulge mutated to a base pair); test: Competitive binding assay (2-AP), RNA-1
Description: as §1

[4] = system: wild type A bulge IRE RNA; test: Thermal melting experiment, wild type IRE
Description: Thermal melting experiment. […] The RNA was heated to 65° C. and slowly cooled to room temperature. […] The absorbance of solution was monitored at 260 nm by a Beckman Coulter DU 800 Spectrophotometer. Background of buffer or buffer plus compound was subtracted from the signal. Resulted melting curves were fitted with MeltWin v3.5 to determine ΔG°, ΔH°, ΔS°, and Tm. The melting temperature was compared to the first derivative value from the raw data for similarity.

[5] = system: α-synuclein pre-formed fibrils (PFFs) toxicity in SH-SY5Y cells; test: Cell death assay: cytoprotection against α-synuclein pre-formed fibrils (LDH); type: cell-based, human; settings: 0.25-1 μM pretreatment 24 h, 50 μg/mL PFFs 48 h
Description: Cell death assay. The cytoprotective effect of Synucleozid was tested against α-synuclein PFFs. Human α-synuclein was expressed^78 and fibrillization induced as previously described^79. SH-SY5Y cells were pretreated with Synucleozid (0.25 μM to 1 μM) for 24 h and challenged with 50 μg/mL of α-synuclein PFFs for an additional 48 h in the presence of Synucleozid. Cell death was measured using LDH (Lactate Dehydrogenase) Cytotoxicity Detection Kit (Takara) according to the manufacturer's instructions and plotted either as optical density value or as percentage changes in comparison to respective controls. Monomeric α-synuclein (50 μg/mL) challenge was used as negative control for PFF cytotoxicity. Additional details are provided in the Supporting Information.
Cell death assay. The cytoprotective effect of Synucleozid was tested against α-synuclein preformed fibrils. […] To induce fibrillization of monomertic α-synuclein, the solution was subjected to shaking at 1000 rpm at 37° C. for 7 days on a thermomixer C (Eppendorf), and formation of fibrillar α-synuclein was monitored and confirmed by thioflavin-T assay (8). […] Cell death was measured using LDH (Lactate Dehydrogenase) Cytotoxicity Detection Kit (Takara) according to the manufacturer's instructions and plotted either as optical density value or as percentage changes in comparison to respective controls. […]

## N=C(N)c1ccc(Nc2ccc(-c3cc4ccc(C(=N)N)cc4[nH]3)cc2)cc1 [Synucleozid A]
[1]
  effect of closing base pair mutation on binding affinity: reduced binding affinity
[2]
  Kd: ~20 µM
  reduction of avidity compared to the native IRE: 10 fold
SNCA 5′ UTR; 250 nM
  inhibition of translation, luciferase fused to SNCA 5′ UTR: ~10%
SNCA 5′ UTR; 1 μM
  inhibition of translation, luciferase fused to SNCA 5′ UTR: ~40%
Ferritin 5′ UTR
  inhibition of translation, luciferase fused to ferritin 5′ UTR: ~10%
SH-SY5Y cells
  cell viability (MTS): no toxicity
SH-SY5Y cells; listed as Synucleozid
  cell viability (MTS): no effect
[3]
  Kd: ~20 µM
  reduction of avidity compared to the native IRE: 10 fold
[4]
  increase of Tm of wild type IRE: 3 °C
[4]; from 51.4 without compound
  Tm of wild type IRE in presence of Synucleozid: 54.8 °C
[4]; from −2.91 without compound
  ΔG37° of wild type IRE in presence of Synucleozid: -3.23 kcal/mol
[5]
  cytoprotection against toxicity of α-synuclein PFFs (LDH release): mitigated the toxicity induced by PFFs in a concentration dependent manner
[5]; listed as Synucleozid
  cytoprotection against toxicity of α-synuclein PFFs (LDH release): abrogates cytotoxicity
